The results in this text go back to the NIST ThermoML archive (doi:10.1016/j.fluid.2005.11.014).

Values joined by “and” are separate entries in the source; they are usually repeats but may differ in a detail not shown here. Equal values may be shown once. Numbers after ± are expanded uncertainties.

For this data set the following is noted: 313.15 K; Liquid; Closed cell (Static) method.
Regarding `CCCO` [propan-1-ol], the “vapor or sublimation pressure” value was 7.003 ± 0.038 kPa and 7 ± 0.038 kPa.

With `CC(C)OC(C)C` [diisopropyl ether], the “vapor or sublimation pressure” value was 37.1 ± 0.15 kPa and 37.11 ± 0.15 kPa and 37.12 ± 0.15 kPa.

In the case of `c1ccccc1` [benzene], the “vapor or sublimation pressure” value was 24.39 ± 0.097 kPa and 24.37 ± 0.097 kPa.

The vapor or sublimation pressure is the pressure of vapour in equilibrium with the condensed phase.
